Assay results published in US9079895B2, “Morpholino compounds, uses and methods” (University of Dundee, priority 2012, dated 2015).
Where “and” joins values, the source holds several entries; their conditions need not be identical. Equal entries are not always repeated.

Legend:
5HT2a receptor = 5HT2a receptor (Homo sapiens (Human), UniProt P28223); test: Secondary radioligand binding assay, 5HT2a; settings: average of at least two experiments
5HT2c receptor = 5HT2c receptor (Homo sapiens (Human), UniProt P28335); test: Secondary radioligand binding assay, 5HT2c; settings: average of at least two experiments
Chain of 5HT2c receptor (P28335 33-458): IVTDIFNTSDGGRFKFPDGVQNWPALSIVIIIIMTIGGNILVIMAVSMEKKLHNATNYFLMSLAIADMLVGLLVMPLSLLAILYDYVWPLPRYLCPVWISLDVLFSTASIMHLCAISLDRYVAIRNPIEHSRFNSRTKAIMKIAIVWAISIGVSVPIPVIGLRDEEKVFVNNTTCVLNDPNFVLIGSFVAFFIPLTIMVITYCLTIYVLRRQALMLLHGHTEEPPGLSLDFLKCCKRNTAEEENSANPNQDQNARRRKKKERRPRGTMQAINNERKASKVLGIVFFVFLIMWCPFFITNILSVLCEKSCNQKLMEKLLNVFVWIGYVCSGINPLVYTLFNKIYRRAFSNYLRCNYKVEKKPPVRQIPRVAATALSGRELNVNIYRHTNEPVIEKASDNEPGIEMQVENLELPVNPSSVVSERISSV

5HT1a receptor = 5HT1a receptor (Homo sapiens (Human), UniProt P08908); test: Secondary radioligand binding assay, 5HT1a; settings: average of at least two experiments
Chain of 5HT1a receptor (P08908 whole entry): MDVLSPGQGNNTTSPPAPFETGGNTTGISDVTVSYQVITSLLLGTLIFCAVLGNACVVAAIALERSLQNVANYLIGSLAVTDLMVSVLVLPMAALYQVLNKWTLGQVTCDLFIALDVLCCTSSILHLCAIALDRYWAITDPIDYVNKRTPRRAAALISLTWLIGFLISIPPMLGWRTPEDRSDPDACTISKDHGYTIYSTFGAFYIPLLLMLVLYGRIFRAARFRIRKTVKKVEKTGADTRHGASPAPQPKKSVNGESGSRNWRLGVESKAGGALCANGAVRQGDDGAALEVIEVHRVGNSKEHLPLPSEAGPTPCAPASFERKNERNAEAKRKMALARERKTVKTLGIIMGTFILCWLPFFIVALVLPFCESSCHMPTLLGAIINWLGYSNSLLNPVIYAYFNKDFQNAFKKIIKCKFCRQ

dopamine D4 receptor = dopamine D4 receptor (Homo sapiens (Human), UniProt P21917); test: Secondary radioligand binding assay, D4; settings: receptor binding; average of at least two experiments; read-out: Ki D4
Chain of dopamine D4 receptor (P21917 whole entry, species assumed): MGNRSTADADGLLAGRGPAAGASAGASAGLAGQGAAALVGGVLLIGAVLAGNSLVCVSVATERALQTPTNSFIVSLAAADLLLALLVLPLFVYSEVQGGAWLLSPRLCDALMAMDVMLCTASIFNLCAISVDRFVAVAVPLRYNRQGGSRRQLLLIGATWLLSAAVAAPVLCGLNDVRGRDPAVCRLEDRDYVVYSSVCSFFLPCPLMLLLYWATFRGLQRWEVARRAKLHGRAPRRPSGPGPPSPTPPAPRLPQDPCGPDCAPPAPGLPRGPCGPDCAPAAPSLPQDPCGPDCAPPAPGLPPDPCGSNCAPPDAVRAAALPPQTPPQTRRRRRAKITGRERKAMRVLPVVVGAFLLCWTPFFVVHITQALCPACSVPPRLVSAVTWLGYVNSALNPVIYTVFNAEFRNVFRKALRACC
Description: (§1) 1. Secondary Radioligand Binding Assays
(§2) The detailed experimental protocols for the radioligand and functional receptor assays are available on the NIMH PDSP website at http://pdsp.med.unc.edu/UNC-CH %20Protocol %20Book.pdf.
Radioligand is diluted to five times the assay concentration (see Table 18) in Standard Binding Buffer. Typically, the assay concentration of radioligand is a value between one half the KD and the KD of a particular radioligand at its target. 50 μl aliquots of radioligand are dispensed into the wells of a 96-well plate containing 100 μl of Standard Binding Buffer. Then, duplicate 50 μl aliquots of the test and reference compound dilutions are added.
The 250 μl reactions are incubated at room temperature and shielded from light (to prevent photolysis of light-sensitive ligands) for 1.5 hours, then harvested by rapid filtration onto Whatman GF/B glass fiber filters pre-soaked with 0.3% polyethyleneimine using a 96-well Brandel harverster. Four rapid 500 μl washes are performed with chilled Standard Binding Buffer to reduce non-specific binding. Filters are placed in 6 ml scintillation tubes and allowed to dry overnight. The next day, 4 ml of EcoScint scintillation cocktail (National Diagnostics) are added to each tube. The tubes are capped, labeled, and counted by liquid scintillation counting. […] The filter mats are dried, then scintillant is melted onto the filters and the radioactivity retained on the filters is counted in a Microbeta scintillation counter.
(§3) Raw data (dpm) representing total radioligand binding (i.e. specific+non-specific binding) are plotted as a function of the logarithm of the molar concentration of the competitor (i.e. test or reference compound).
B. Dopamine Receptors: D1, D2, D3, D4, D5 Assay Buffers: Dopamine Binding Buffer (50 mM NaCl, 50 mM HEPES-HCl, 5 mM MgCl2, 0.5 mM EDTA, pH 7.4) Membrane Fraction Source: Transiently or stably transfected cell lines (e.g. HEK293, COS, CHO, NIH3T3)
(§4) The method is carried out in the manner described for the serotonin receptor assay above. Eleven dilutions (5× assay concentration) of the test and reference (see Table 19) compounds are prepared in Dopamine Binding Buffer by serial dilution, as previously described. Radioligand is diluted to five times the assay concentration (see Table 20) in Dopamine Binding Buffer.

5HT1e receptor = 5HT1e receptor (Homo sapiens (Human), UniProt P28566); test: Secondary radioligand binding assay, 5HT1e; design: key: “—” indicates that a binding interaction was not detected; settings: average of at least two experiments;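 further: competition binding against a radioligand on membranes from transfected cell lines, 1.5 h at room temperature, bound radioactivity counted by liquid scintillation after filtration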
Chain of 5HT1e receptor (P28566 whole entry): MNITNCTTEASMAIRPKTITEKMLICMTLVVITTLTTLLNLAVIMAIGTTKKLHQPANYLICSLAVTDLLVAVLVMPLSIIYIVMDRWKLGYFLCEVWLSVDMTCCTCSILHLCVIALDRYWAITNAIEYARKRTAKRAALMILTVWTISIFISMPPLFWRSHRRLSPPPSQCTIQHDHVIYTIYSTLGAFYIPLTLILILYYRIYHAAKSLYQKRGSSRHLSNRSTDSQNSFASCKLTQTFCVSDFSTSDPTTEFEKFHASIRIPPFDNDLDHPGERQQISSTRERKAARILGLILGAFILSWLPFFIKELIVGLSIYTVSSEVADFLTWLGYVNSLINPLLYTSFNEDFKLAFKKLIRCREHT

5HT4 receptor = 5HT4 receptor (Homo sapiens (Human), UniProt Q13639); test: Secondary radioligand binding assay, 5HT4; design: key: “—” indicates that a binding interaction was not detected; settings: average of at least two experiments
Chain of 5HT4 receptor (Q13639 whole entry): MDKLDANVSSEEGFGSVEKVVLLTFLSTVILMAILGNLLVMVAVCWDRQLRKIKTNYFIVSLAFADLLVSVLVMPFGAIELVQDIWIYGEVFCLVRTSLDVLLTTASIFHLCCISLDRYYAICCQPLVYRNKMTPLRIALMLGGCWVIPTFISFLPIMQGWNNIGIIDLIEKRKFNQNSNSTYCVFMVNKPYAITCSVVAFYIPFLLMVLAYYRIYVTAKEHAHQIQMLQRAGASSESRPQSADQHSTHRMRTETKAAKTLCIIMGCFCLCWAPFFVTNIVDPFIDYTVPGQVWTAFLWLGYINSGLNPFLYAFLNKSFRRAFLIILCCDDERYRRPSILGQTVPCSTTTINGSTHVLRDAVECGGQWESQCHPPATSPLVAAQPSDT
Description: 1. Secondary Radioligand Binding Assays The detailed experimental protocols for the radioligand and functional receptor assays are available on the NIMH PDSP website at http://pdsp.med.unc.edu/UNC-CH %20Protocol %20Book.pdf. Assay Buffer: Standard Binding Buffer (50 mM Tris-HCl, 10 mM MgCl2, 1 mM EDTA, pH 7.4) Membrane Fraction Source: Transiently or stably transfected cell lines (e.g., HEK293, COS, CHO, NIH3T3) Protocol adapted from Roth et al. (1986), J. Pharmacol. Exp. Ther., 238(2): 480-485; and Roth et al. (1994), J. Pharmacol. Exp. Ther., 268(3): 1403-1410. […] A similar stock of a reference compound (positive control) is also prepared. […] Radioligand is diluted to five times the assay concentration (see Table 18) in Standard Binding Buffer. Typically, the assay concentration of radioligand is a value between one half the KD and the KD of a particular radioligand at its target. 50 μl aliquots of radioligand are dispensed into the wells of a 96-well plate containing 100 μl of Standard Binding Buffer. Then, duplicate 50 μl aliquots of the test and reference compound dilutions are added. Finally, crude membrane fractions of cells expressing recombinant target (prepared from 10 cm plates by harvesting PBS-rinsed monolayers, resuspending and lysing in chilled, hypotonic 50 mM Tris-HCl, pH 7.4, centrifuging at 20,000×g, decanting the supernatant and storing at −80° C.; typically, one 10 cm plate provides sufficient material for 24 wells), are resuspended in 3 ml of chilled Standard Binding Buffer and homogenized by several passages through a 26 gauge needle, then 50 μl are dispensed into each well. […] Four rapid 500 μl washes are performed with chilled Standard Binding Buffer to reduce non-specific binding. Filters are placed in 6 ml scintillation tubes and allowed to dry overnight. The next day, 4 ml of EcoScint scintillation cocktail (National Diagnostics) are added to each tube. The tubes are capped, labeled, and counted by liquid scintillation counting. For higher throughput assays, bound radioactivity is harvested onto 0.3% polyethyleneimine-treated, 96-well filter mats using a 96-well Filtermate harvester. The filter mats are dried, then scintillant is melted onto the filters and the radioactivity retained on the filters is counted in a Microbeta scintillation counter. Raw data (dpm) representing total radioligand binding (i.e. specific+non-specific binding) are plotted as a function of the logarithm of the molar concentration of the competitor (i.e. test or reference compound).

5HT5 receptor = 5HT5 receptor (Homo sapiens (Human), UniProt P47898); test: Secondary radioligand binding assay, 5HT5; design: key: “—” indicates that a binding interaction was not detected; settings: average of at least two experiments;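 further: competitive radioligand displacement on membranes from transfected cell lines, incubated at room temperature in the dark, filter-retained radioactivity counted by liquid scintillation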
Chain of 5HT5 receptor (P47898 whole entry): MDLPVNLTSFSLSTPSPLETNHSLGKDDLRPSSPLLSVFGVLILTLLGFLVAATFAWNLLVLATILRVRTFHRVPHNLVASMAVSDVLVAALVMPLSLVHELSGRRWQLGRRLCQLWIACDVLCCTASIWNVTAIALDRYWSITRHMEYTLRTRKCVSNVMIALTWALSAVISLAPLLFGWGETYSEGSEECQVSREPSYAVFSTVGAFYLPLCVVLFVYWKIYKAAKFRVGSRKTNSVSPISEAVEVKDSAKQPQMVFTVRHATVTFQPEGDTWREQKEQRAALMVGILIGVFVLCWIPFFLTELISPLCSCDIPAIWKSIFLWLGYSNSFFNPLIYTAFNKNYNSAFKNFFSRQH

5HT1b receptor = 5HT1b receptor (Homo sapiens (Human), UniProt P28222); test: Secondary radioligand binding assay, 5HT1b; settings: average of at least two experiments
Chain of 5HT1b receptor (P28222 whole entry): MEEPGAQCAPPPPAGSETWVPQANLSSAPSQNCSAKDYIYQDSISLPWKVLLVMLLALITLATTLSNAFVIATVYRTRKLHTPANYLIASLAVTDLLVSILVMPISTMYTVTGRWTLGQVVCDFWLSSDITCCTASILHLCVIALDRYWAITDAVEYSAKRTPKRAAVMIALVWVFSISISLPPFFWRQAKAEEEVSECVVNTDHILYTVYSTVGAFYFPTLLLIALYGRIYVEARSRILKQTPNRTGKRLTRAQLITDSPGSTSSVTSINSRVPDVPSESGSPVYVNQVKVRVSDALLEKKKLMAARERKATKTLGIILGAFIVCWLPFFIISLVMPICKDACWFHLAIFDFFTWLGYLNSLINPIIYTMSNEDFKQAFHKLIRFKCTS
Description: The 250 μl reactions are incubated at room temperature and shielded from light (to prevent photolysis of light-sensitive ligands) for 1.5 hours, then harvested by rapid filtration onto Whatman GF/B glass fiber filters pre-soaked with 0.3% polyethyleneimine using a 96-well Brandel harverster. Four rapid 500 μl washes are performed with chilled Standard Binding Buffer to reduce non-specific binding. Filters are placed in 6 ml scintillation tubes and allowed to dry overnight. […] The tubes are capped, labeled, and counted by liquid scintillation counting. […] The filter mats are dried, then scintillant is melted onto the filters and the radioactivity retained on the filters is counted in a Microbeta scintillation counter. […]

[1] = molecular target: Alpha1D adrenergic receptor (Homo sapiens (Human), UniProt P25100); test: Secondary radioligand binding assay, Alpha1D; settings: average of at least two experiments
Chain of Alpha1D adrenergic receptor (P25100 whole entry): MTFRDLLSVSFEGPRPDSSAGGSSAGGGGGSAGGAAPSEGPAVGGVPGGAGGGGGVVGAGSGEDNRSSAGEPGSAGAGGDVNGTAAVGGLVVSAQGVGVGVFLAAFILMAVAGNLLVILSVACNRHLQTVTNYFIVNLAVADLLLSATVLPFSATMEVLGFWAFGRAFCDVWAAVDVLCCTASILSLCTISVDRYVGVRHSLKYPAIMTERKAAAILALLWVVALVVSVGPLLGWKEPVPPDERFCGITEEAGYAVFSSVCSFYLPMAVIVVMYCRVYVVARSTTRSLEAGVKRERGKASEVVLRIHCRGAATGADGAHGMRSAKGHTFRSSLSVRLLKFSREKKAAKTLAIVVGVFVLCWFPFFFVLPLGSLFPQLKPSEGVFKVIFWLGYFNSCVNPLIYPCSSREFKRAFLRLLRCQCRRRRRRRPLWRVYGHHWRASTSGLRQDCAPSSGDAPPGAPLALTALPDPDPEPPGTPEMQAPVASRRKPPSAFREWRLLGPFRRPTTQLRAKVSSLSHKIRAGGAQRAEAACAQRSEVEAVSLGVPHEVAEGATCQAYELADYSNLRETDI
Description: as §1, §2, §3
as §4, with “above, except where described below.” for “above.”, “20)” for “19)”, “the appropriate buffer” for “Dopamine Binding Buffer”, “21)” for “20)”, “the appropriate buffer.” for “Dopamine Binding Buffer.”
The 250 μl reactions are incubated at room temperature and shielded from light (to prevent photolysis of light-sensitive ligands) for 1 hour (for α1 receptors, 40 min for α2 receptors, and 1.5 hours for β receptors), then harvested by rapid filtration onto Whatman GF/B glass fiber filters pre-soaked with 0.3% polyethyleneimine using a 96-well Brandel harverster. Four rapid 500-μl washes are performed with chilled distilled water (for α1 and β receptors) or 0.1% polyethyleneimine (for α2 receptors) to reduce non-specific binding. Filters are placed in 6 ml scintillation tubes and allowed to dry overnight and the samples are treated to obtain data as described above.

Chain of 5HT2a receptor (P28223 whole entry): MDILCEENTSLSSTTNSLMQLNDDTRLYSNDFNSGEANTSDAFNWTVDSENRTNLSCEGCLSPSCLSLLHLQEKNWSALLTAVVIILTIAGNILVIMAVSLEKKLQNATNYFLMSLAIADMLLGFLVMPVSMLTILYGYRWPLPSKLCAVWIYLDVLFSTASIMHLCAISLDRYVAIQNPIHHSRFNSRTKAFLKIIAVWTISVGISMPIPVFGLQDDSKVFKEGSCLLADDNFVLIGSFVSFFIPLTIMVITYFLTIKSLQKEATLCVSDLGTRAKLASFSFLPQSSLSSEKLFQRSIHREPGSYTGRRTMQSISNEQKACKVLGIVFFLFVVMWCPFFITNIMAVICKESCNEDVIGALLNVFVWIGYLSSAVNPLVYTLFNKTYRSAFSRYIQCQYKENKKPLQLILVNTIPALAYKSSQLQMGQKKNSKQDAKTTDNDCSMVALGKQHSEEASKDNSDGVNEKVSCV

Compound	Ki (5HT2a receptor) [nM]	Ki (5HT2c receptor) [nM]	Ki (5HT1a receptor) [nM]	Ki (dopamine D4 receptor)	Ki 5HT1e (5HT1e receptor)	Ki 5HT4 (5HT4 receptor)	Ki 5HT5 (5HT5 receptor)	Ki (5HT1b receptor) [nM]	Ki [1] [nM]
c1ccc(OC[C@@H]2CN(CCN3CCc4ccccc43)CCO2)cc1 [Compound 19s, (S)-4-(2-(Indolin-1-yl)ethyl)-2-(phenoxymethyl)morpholine]	817	6740	0.6	< 1000 nM and 132 nM	—	—	—		
O=C(CN1CCO[C@@H](COc2cccc(Cl)c2)C1)N1CCc2ccccc21 [Compound 22r, (R)-2-(2-((3-chlorophenoxy)methyl)morpholino)-1-(indolin-1-yl)ethanone]	2070		384	536 nM	—	—	—		
O=C(CN1CCO[C@H](COc2cccc(Cl)c2)C1)N1CCc2ccccc21 [Compound 22s, (S)-2-(2-((3-Chlorophenoxy)methyl)morpholino)-1-(indolin-1-yl)ethanone]	2720		1390	2860 nM	—	—	—	7770	
Clc1cccc(OC[C@@H]2CN(CCN3CCc4ccccc43)CCO2)c1 [Compound 23s, (S)-2-((3-chlorophenoxy)methyl)-4-(2-(indolin-1-yl)ethyl)morpholine]	1280	3390			—	—	—		4180
COc1cccc(OC[C@@H]2CN(CC(=O)N3CCc4ccccc43)CCO2)c1 [Compound 24s, (S)-1-(Indolin-1-yl)-2-(2-((3-methoxyphenoxy)methyl)morpholino)ethanone]	1940		371		—	—	—	4830	
COc1cccc(OC[C@@H]2CN(CCN3CCc4ccccc43)CCO2)c1 [Compound 25s, (S)-4-(2-(Indolin-1-yl)ethyl)-2-((3-methoxyphenoxy)methyl)morpholine]	1400	3760	174		—	—	—		
Cc1ncccc1OC[C@@H]1CN(CC(=O)N2c3ccccc3C[C@H]2C)CCO1 [Compound 61]			540		—	—	—		> 10000
CC1Cc2ccccc2N1C(=O)CN1CCO[C@H](COc2cccc(Cl)c2)C1 (stereo partly drawn) [Compound 64]	4540		644	2390 nM	—	—	—		> 10000
CC1Cc2ccccc2N1C(=O)CN1CCO[C@@H](COc2cccc(Cl)c2)C1 (stereo partly drawn) [Compound 65]	1810		> 10000		—	—	—		> 10000
Cc1ccccc1OC[C@H]1CN(CC(=O)N2c3ccccc3CC2C)CCO1 (stereo partly drawn) [Compound 66]			7540		—	—	—		> 10000
Cc1ccnc(OC[C@H]2CN(CC(=O)N3c4ccccc4CC3C)CCO2)c1 (stereo partly drawn) [Compound 70]		6370	6370		—	—	—		
